Reference: patent US12281323B2, “Treatment for restoring ureagenesis in carbamoyl phosphate synthetase 1 deficiency” (The Regents of the University of California, priority 2019, dated 2025)

Test system: conditional CPS1 knock out mouse model
Assay: sAAV efficacy in vivo in conditional CPS1 knock out mouse model (floxed Cps1 removed by AAV-Cre)
Conditions: sAAV-treated mice additionally treated with n-carglumic acid
From the text: To illustrate the ability of sAAVs to treat CPS1 deficiency, sAAVs encoding human codon optimized CPS1 (hcoCPS1) driven by the constitutive CAG promoter were generated and tested in a conditional CPS1 knock out mouse model (see, e.g. Khoja et al., Molecular Genetics and Metabolism. 2018 Aug. 1; 124(4):243-253). […] Currently, there is no effective therapy for human patients with CPS1 disorders. Our data from this gene therapy model in mice having knocked out endogenous CPS1 expression provides evidence that this treatment can address this unmet need for these patients.
In illustrative embodiments of the invention, to test sAAV efficacy in vivo, a conditional CPS1 knock out mouse model was used. These mice contain biallelic floxed Cps1 which is removed by treatment with an AAV expressing Cre recombinase (AAV-Cre). […] Treatment with the small molecule n-carglumic acid, an analog of NAG, the allosteric activator of CPS1, further extended lifespan (all mice >120 days; p<0.01) and maintained near normal plasma ammonia (baseline: 138.87 μM±86.5; post-treatment: 217.8 μM±69.9; p=0.15).

With NC(=O)N[C@@H](CCC(=O)O)C(=O)O [n-carglumic acid] the lifespan (all mice, p<0.01) was > 120 days and the plasma ammonia post-treatment (±69.9, baseline 138.87 μM±86.5, p=0.15) was 217.8 µM.
